Test results reported in patent publication US20250215029A1 (Recludix Pharma, Inc., priority 2022, published 2025).
Read-outs that look alike come from different tables or passages of the source.

Experiments:
[1] = target: T1, pY705-STAT3 in PBMC (Homo sapiens, UniProt P40763); assay: MSD-pSTAT-PBMC Assay (pSTAT3, IL-6 stimulated); format: cell-based; details: PBMC, compound 3 hrs, then 10 ng/mL IL-6 for 10 min; Table 1114; read-out: pSTAT3
T1 construct: Cryopreserved Peripheral Blood Mononuclear Cells (PBMC) are from AllCells; host or cells: cryopreserved PBMC
Outline: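 Cells are preincubated with compound for 3 hrs, then stimulated for 10 min, IL-4 at 1 ng/mL driving STAT6 phosphorylation and IL-6 at 10 ng/mL driving STAT3. Phospho-STAT in lysates is quantified by MSD immunoassay, and IC50 is fitted after subtracting unstimulated wells.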

[2] = target: T2, pY641-STAT6 in PBMC (Homo sapiens, UniProt P42226); assay: MSD-pSTAT-PBMC Assay (pSTAT6, IL-4 stimulated); format: cell-based; details: compound 3 hrs, then 1 ng/mL IL-4 for 10 min
T2 construct: Cryopreserved Peripheral Blood Mononuclear Cells (PBMC) are from AllCells; host or cells: cryopreserved PBMC
T2 sequence (P42226 1-847): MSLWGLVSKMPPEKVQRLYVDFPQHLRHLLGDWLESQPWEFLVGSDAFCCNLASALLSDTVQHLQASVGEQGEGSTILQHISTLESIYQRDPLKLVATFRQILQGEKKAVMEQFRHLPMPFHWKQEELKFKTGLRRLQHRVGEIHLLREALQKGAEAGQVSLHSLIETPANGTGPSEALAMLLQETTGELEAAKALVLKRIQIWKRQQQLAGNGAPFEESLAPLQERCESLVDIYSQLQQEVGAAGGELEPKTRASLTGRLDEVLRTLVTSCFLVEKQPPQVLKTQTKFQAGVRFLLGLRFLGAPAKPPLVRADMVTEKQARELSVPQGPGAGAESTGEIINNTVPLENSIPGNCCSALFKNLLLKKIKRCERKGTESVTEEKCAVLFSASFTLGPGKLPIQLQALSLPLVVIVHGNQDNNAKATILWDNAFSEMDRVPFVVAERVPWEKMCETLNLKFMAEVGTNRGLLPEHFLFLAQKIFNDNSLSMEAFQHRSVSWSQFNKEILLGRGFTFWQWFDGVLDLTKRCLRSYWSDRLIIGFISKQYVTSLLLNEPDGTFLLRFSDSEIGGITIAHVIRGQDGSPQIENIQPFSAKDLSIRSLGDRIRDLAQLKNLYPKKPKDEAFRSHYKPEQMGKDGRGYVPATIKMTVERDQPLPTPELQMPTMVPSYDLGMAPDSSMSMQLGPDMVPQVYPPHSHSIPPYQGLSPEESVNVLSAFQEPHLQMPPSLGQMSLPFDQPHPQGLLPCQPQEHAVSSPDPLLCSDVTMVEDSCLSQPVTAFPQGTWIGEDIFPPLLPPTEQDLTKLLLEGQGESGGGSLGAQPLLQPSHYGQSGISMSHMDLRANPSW
Outline: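 Thawed human PBMC rested overnight in IMDM/10% FBS, then got compound for 3 hrs before a 10 min cytokine pulse: 1 ng/mL IL-4 for pSTAT6, 10 ng/mL IL-6 for pSTAT3. Lysates went to MSD sandwich capture on total STAT6 or STAT3 with phospho-specific detection. IC50 came from background-subtracted, DMSO-normalized signal.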

[3] = PBMC, Table 1114, read-out: pSTAT6

T1 sequence (P40763 whole entry): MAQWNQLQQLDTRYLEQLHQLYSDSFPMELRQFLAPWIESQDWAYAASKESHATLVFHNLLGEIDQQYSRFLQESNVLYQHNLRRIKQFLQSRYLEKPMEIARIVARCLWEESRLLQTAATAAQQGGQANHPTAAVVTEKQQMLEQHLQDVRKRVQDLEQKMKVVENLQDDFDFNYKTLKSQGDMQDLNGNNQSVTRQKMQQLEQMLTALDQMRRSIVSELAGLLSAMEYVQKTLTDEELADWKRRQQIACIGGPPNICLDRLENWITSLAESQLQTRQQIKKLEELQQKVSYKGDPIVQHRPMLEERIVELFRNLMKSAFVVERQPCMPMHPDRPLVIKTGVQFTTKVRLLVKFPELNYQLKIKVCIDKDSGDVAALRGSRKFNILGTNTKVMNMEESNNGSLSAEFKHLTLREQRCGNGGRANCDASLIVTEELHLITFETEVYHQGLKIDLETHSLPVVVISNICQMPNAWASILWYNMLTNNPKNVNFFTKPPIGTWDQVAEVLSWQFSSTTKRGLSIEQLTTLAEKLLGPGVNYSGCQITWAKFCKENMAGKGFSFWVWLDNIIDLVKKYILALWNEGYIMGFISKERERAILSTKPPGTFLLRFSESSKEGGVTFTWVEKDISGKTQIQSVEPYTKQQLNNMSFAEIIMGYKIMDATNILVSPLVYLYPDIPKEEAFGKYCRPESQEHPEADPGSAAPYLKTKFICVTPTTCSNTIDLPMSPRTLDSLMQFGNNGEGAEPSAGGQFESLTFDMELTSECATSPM

`CC(C)(C)C(=O)OCOP(=O)(OCOC(=O)C(C)(C)C)C(F)(F)c1ccc2sc(C(=O)N[C@H]3CCCC[C@H]4CC[C@@H](C(=O)N5CC(C#N)C(c6cc[nH]c(=O)c6)C5)N4C3=O)cc2c1` (mixture of isomers) [Compound 147, ((((2-(((3S,6S,10aS)-3-(rel-trans)-3-cyano-4-(2-oxo-1,2-dihydro-pyridin-4-yl)pyrrolidine-1-carbonyl)-5-oxodecahydro-pyrrolo[1,2-a]azocin-6-yl)carbamoyl)benzo[b]thiophen-5-yl)difluoromethyl)phosphoryl)bis (oxy))bis (methylene) bis(2,2-dimethylpropanoate)] gave an IC50 [1] of 100 to 1000 nM and an IC50 [2, 3] of less than 100 nM.

`CCCC(=O)SCCOP(=O)(OCCSC(=O)CCC)C(F)(F)c1ccc2sc(C(=O)N[C@H]3CCCC[C@H]4CC[C@@H](C(=O)N5C[C@@H](C#N)[C@H](c6ccccc6)C5)N4C3=O)cc2c1` (relative stereo) [Compound 126, S,S′-(((((2-(((3S,6S,10aS)-3-(rel-trans)-3-cyano-4-phenylpyrrolidine-1-carbonyl)-5-oxodecahydro-pyrrolo[1,2-a]azocin-6-yl)carbamoyl)benzo[b]thiophen-5-yl)difluoromethyl)phosphoryl)bis(oxy)) bis(ethane-2,1-diyl)) dibutanethioate] showed an IC50 [1] of 100 to 1000 nM and an IC50 [2, 3] of less than 100 nM.

With `CC(C)(C)C(=O)OCOP(=O)(OCOC(=O)C(C)(C)C)C(F)(F)c1ccc2sc(C(=O)N[C@H]3CCCCC4CC[C@@H](C(=O)N5C[C@H](C6CCCCC6)[C@@H](C#N)C5)N4C3=O)cc2c1` (relative stereo) [Compound 143, ((((2-(((3S,6S,10aS)-3-(rel-(trans)-3-cyano-4-cyclohexyl-pyrrolidine-1-carbonyl)-5-oxodecahydro-pyrrolo[1,2-a]azocin-6-yl)carbamoyl)benzo[b]thiophen-5-yl)difluoromethyl)phosphoryl)bis (oxy))bis (methylene) bis (2,2-dimethyl-propanaote)] the IC50 [1] was 100 to 1000 nM and the IC50 [2, 3] was less than 100 nM.

Work on `CC(C)(C)C(=O)OCOP(=O)(OCOC(=O)C(C)(C)C)C(F)(F)c1ccc2sc(C(=O)N[C@H]3CCCCC[C@H]4CC[C@@H](C(=O)N5C[C@@H](C#N)[C@H](c6ccccc6)C5)N4C3=O)cc2c1` (relative stereo) [Compound 146, ((((2-(((3S,6S,11aS)-3-(rel-(trans)-3-cyano-4-phenylpyrrolidine-1-carbonyl)-5-oxodecahydro-1H-pyrrolo[1,2-a]azonin-6-yl)carbamoyl)benzo[b]thiophen-5-yl)difluoromethyl)phosphoryl)bis (oxy))bis(methylene) bis(2,2-dimethyl-propanoate)] yielded an IC50 [1] of 1000 to 3000 nM and an IC50 [2, 3] of less than 100 nM.

Work on `CC(C)(C)C(=O)OCOP(=O)(OCOC(=O)C(C)(C)C)C(F)(F)c1ccc2sc(C(=O)N[C@@]3(C)CCCCC4CC[C@@H](C(=O)N5C[C@H](c6ccccc6)[C@@H](C#N)C5)N4C3=O)cc2c1` (relative stereo) [Compound 151, ((((2-(((3S,6S,10aS)-3-(rel-trans)-3-cyano-4-phenylpyrrolidine-1-carbonyl)-6-methyl-5-oxodecahydro-pyrrolo[1,2-a]azocin-6-yl)carbamoyl)benzo[b]thiophen-5-yl)difluoromethyl)phosphoryl)bis (oxy))bis (methylene) bis(2,2-dimethylpropanoate)] yielded an IC50 [1] of 100 to 1000 nM and an IC50 [2, 3] of 100 to 1000 nM.

In the case of `CCCOC(=O)[C@H](C)NP(=O)(Oc1ccccc1)[C@H](F)c1ccc2sc(C(=O)N[C@H]3CC[C@H](N4CCC4)C[C@H]4CC[C@@H](C(=O)N5C[C@@H](c6ccccc6)[C@H](C#N)C56CC6)N4C3=O)cc2c1` (stereo partly drawn) [Compound 492, propyl (((S)-(2-(((3S,6S,9S,10aR)-9-(azetidin-1-yl)-3-((6R,7S)-7-cyano-6-phenyl-4-azaspiro[2.4]heptane-4-carbonyl)-5-oxodecahydropyrrolo [1,2-a]azocin-6-yl)carbamoyl)benzo [b]thiophen-5-yl)fluoromethyl) (phenoxy)phosphoryl)-L-alaninate], the IC50 ([2]; STAT6, PBMC, Table 115) is reported as less than 100 nM.

Molecule `CCCOC(=O)[C@H](C)NP(=O)(Oc1ccccc1)C(F)c1ccc2sc(C(=O)N[C@H]3CCCC[C@H]4CC[C@@H](C(=O)N5C(=O)N(c6cc(=O)n(C)cc6F)C(=O)C56CC6)N4C3=O)cc2c1` (stereo partly drawn) [Compound 976, propyl ((fluoro(2-(((3S,6S,10aS)-3-(6-(5-fluoro-1-methyl-2-oxo-1,2-dihydropyridin-4-yl)-5,7-dioxo-4,6-diazaspiro [2.4]heptane-4-carbonyl)-5-oxodecahydropyrrolo [1,2-a]azocin-6-yl)carbamoyl)benzo [b]thiophen-5-yl)methyl)(phenoxy)phosphoryl)-L-alaninate] has an IC50 ([2]; STAT6, PBMC, Table 115) greater than 3000 nM.

`CCCOC(=O)[C@H](C)NP(=O)(Oc1ccccc1)C(F)c1ccc2sc(C(=O)N[C@H]3CCCC[C@H]4CC[C@@H](C(=O)N5C(=O)N(c6ccn(C)c(=O)c6)C(=O)C56CC6)N4C3=O)cc2c1` (stereo partly drawn) [Compound 977, propyl ((fluoro(2-(((3S,6S,10aS)-3-(6-(1-methyl-2-oxo-1,2-dihydropyridin-4-yl)-5,7-dioxo-4,6-diazaspiro[2.4]heptane-4-carbonyl)-5-oxodecahydropyrrolo [1,2-a]azocin-6-yl)carbamoyl)benzo [b]thiophen-5-yl)methyl)(phenoxy)phosphoryl)-L-alaninate] gave an IC50 ([2]; STAT6, PBMC, Table 115) of 100 to 1000 nM.

`CCCOC(=O)[C@H](C)NP(=O)(Oc1ccccc1)C(F)c1ccc2sc(C(=O)N[C@H]3CCCC[C@H]4CC[C@@H](C(=O)N5C(=O)N(c6ccn(C(C)C)c(=O)c6)C(=O)C56CC6)N4C3=O)cc2c1` (stereo partly drawn) [Compound 981, propyl ((fluoro(2-(((3S,6S,10aS)-3-(6-(1-isopropyl-2-oxo-1,2-dihydropyridin-4-yl)-5,7-dioxo-4,6-diazaspiro [2.4]heptane-4-carbonyl)-5-oxodecahydropyrrolo [1,2-a]azocin-6-yl)carbamoyl)benzo [b]thiophen-5-yl)methyl)(phenoxy)phosphoryl)-L-alaninate] showed an IC50 ([2]; STAT6, PBMC, Table 115) greater than 3000 nM.

`CCCOC(=O)[C@H](C)NP(=O)(Oc1ccccc1)C(F)c1ccc2sc(C(=O)N[C@H]3CCCC[C@H]4CC[C@@H](C(=O)N5C(=O)N(c6cccc7c6OC(F)(F)O7)C(=O)C56CC6)N4C3=O)cc2c1` (stereo partly drawn) [Compound 982, propyl (((2-(((3S,6S,10aS)-3-(6-(2,2-difluorobenzo[d][1, 3]dioxol-4-yl)-5,7-dioxo-4,6-diazaspiro [2.4]heptane-4-carbonyl)-5-oxodecahydropyrrolo [1,2-a]azocin-6-yl)carbamoyl)benzo [b]thiophen-5-yl)fluoromethyl) (phenoxy)phosphoryl)-L-alaninate] gave an IC50 ([2]; STAT6, PBMC, Table 115) greater than 3000 nM.

In the case of `CCCOC(=O)[C@H](C)NP(=O)(Oc1ccccc1)C(F)c1ccc2sc(C(=O)N[C@H]3CCCC[C@H]4CC[C@@H](C(=O)N5C(=O)N(c6cccnc6)C(=O)C5(C)C)N4C3=O)cc2c1` (stereo partly drawn) [Compound 989, propyl (((2-(((3S,6S,10aS)-3-(5,5-dimethyl-2,4-dioxo-3-(pyridin-3-yl)imidazolidine-1-carbonyl)-5-oxodecahydropyrrolo [1,2-a]azocin-6-yl)carbamoyl)benzo [b]thiophen-5-yl)fluoromethyl) (phenoxy)phosphoryl)-L-alaninate], the IC50 ([2]; STAT6, PBMC, Table 115) is reported as greater than 3000 nM.

Work on `CCCOC(=O)[C@H](C)NP(=O)(Oc1ccccc1)C(F)c1ccc2sc(C(=O)N[C@H]3CCCC[C@H]4CC[C@@H](C(=O)N5C(=O)N(c6cccnc6)C(=O)C56CCC6)N4C3=O)cc2c1` (stereo partly drawn) [Compound 992, propyl (((2-(((3S,6S,10aS)-3-(6,8-dioxo-7-(pyridin-3-yl)-5,7-diazaspiro[3.4]octane-5-carbonyl)-5-oxodecahydropyrrolo [1,2-a]azocin-6-yl)carbamoyl)benzo [b]thiophen-5-yl)fluoromethyl) (phenoxy)phosphoryl)-L-alaninate] yielded an IC50 ([2]; STAT6, PBMC, Table 115) of 100 to 1000 nM.

Work on “(4-methyl- 112,212,4- triazolidin-3- yl)methyl (((1R)- fluoro(2- (((3S,6S,9aS)-5- oxo-3-((R)-6- (pyridin-3-yl)-4- azaspiro[2.4]heptane- 4- carbonyl)octahydro- 1H-pyrrolo[1,2- a]azepin-6- yl)carbamoyl)-2,3- dihydrobenzo[b] thiophen-5- yl)methyl)(phenoxy) phosphoryl)-L- alaninate [Compound 373]” yielded an IC50 ([2]; PBMC, Table 115, read-out: STAT6) greater than 3000 nM.
